Patent EP2368885A1, “Derivatives of phenazine useful to treat cancer” (Université de la Méditerranée (Aix-Marseille II), priority 2010, dated 2011)

Tested on: MiaPaCa-2 cells
Assay: not given
Conditions: not given

“2,3-dihydroxy-7,8-diamino(Boc)phenazine [compound 13]” was tested. Which “Cytotoxicity (en %)” value did it give?
The value was 30 >X> 25.

For `CCCCCCCCCCCCCCCC(=O)Oc1cc2nc3ccccc3nc2cc1OC(=O)CCCCCCCCCCCCCCC` [compound 7, 2,3-diopalmitoylphenazine], which “Cytotoxicity (en %)” value is on record?
Its value is 50 >X> 40.

How did the “Cytotoxicity (en %)” value turn out when “2-hydroxy-3-ethoxy-7-ethylcarboxyphenazine [compound 5]” was run?
Its value is “X>50%”.

“2,3-diethoxy-7-ethylcarboxyphenazine [compound 14]” was tested. Which “Cytotoxicity (en %)” value did it give?
The value was 20 > X > 10.

Tested on: MiaPaCa-2 cells
Assay: MTT colorimetric cytotoxicity assay on pancreatic chemoresistant cancer MiaPaCa-2 cells
Conditions: 48 hours incubation, tested concentration not stated

How did the “Cytotoxicity (en %)” value turn out when `CCCCCCCCCCCCOc1cc2nc3ccc(C(=O)O)cc3nc2cc1OCCCCCCCCCCCC` [compound 1, 2,3-didodecanoxy-7-carboxyphenazine] was run?
Its value is “X>50%”.

How did the “Cytotoxicity (en %)” value turn out when `CCCCCCCCCCCCOc1cc2nc3cc(N)c(N)cc3nc2cc1OCCCCCCCCCCCC` [compound 2, 2,3-didodecanoxy-7,8-diaminophenazine] was run?
Its value is “X>50%”.

How did the “Cytotoxicity (en %)” value turn out when `CCCCCCCCCCCCOc1cc2nc3ccccc3nc2cc1OCCCCCCCCCCCC` [compound 3, 2,3-didodecanoxyphenazine] was run?
Its value is “X>50%”.

`CCCCCCCCCCCCOc1cc2nc3ccc(C(=O)NCCN(C)C)cc3nc2cc1OCCCCCCCCCCCC` [compound 4, 2,3-didodecanoxy-7-dimethylaminoethylcarbamoylphenazine] was tested. Which “Cytotoxicity (en %)” value did it give?
Its value is “X > 50%”.
